{"source": "patent US20200289434A1", "about": "“RAPIDLY IMPROVING ENDOTHELIAL FUNCTION, REDUCING ARTERIAL STIFFNESS AND REVERSING CALCIFICATION OF BLOOD VESSELS BY ADMINISTERING VITAMIN K” (KAYDENCE PHARMA AS, priority 2019, published 2020)", "key": {"[1]": {"test_system": "kidney transplantation patients", "assay": "Clinical study: pulse wave velocity measurement of arterial stiffness", "assay_type": "in vivo, human", "conditions": "kidney transplant patients, 360 ug/day, 8 weeks", "protocol": "Clinical Study to study the efficacy and safety of Vitamin K2 supplementation on arterial stiffness, the rigidity of arterial walls, in kidney transplantation patients.\nA clinical study was carried out. Arterial wall property measurements were taken at t=0 and t=8 weeks and show a dramatic improvement in arterial wall flexibility. This is good support for concluding that the ingestion of vitamin K, even over this short period, is an effective way of improving endothelial function, reducing arterial stiffness and reducing calcification. […] It is surprising and unexpected because calcification is a slow progressive process and it was thought that reversing this process would also be slow and progressive.\nParticipants were enrolled in a clinical trial in which the effects of vitamin K2 were determined for patients who had recently undergone a kidney transplant. At the beginning of the study, patients were subjected to a non-invasive pulse wave velocity measurement to measure arterial stiffness/flexibility, as well as blood analysis. The study participants were then instructed to receive a specific daily dose of MenaQ7 vitamin K2 menaquinone-7 (360 ug/day) for a total of 8 weeks. At the end of 8 weeks, patients were again examined with a follow-up examination, a non-invasive pulse wave velocity measurement and blood analysis and drug treatment was discontinued."}, "ApoE/LDLR−/− mice": {"test_system": "ApoE/LDLR−/− mice", "assay": "Example 2: MRI-based assessment of NO-dependent vasodilatation in BCA and LCA after acetylcholine", "assay_type": "in vivo", "conditions": "two months, 6-month old mice", "protocol": "Endpoint assays: Magnetic resonance imaging (MRI)-based assessment of nitric oxide (NO)-dependent vasodilatation in brachiocephalic (BCA) and left common carotid artery (LCA) after acetylcholine (Ach) administration—by MRI 9.4T scanner, total time of measurements: 114 h (1.5 h per animal), acetylcholine (Ach, 16.6 mg/kg b.w.)\nStudies were performed on 4-month old female ApoE/LDLR−/− mice, the model initially described by Ishibashi S, Herz J, Maeda N, Goldstein J, Brown M. The two-receptor model of lipoprotein clearance: tests of the hypothesis in “knockout” mice lacking the low density lipoprotein receptor, apolipoprotein E, or both proteins. Proc Natl Acad Sci USA 1994; 10:4431-5., and extensively characterized in previous studies, [see Kostogrys R B, Franczyk-Zarow M, Gasior-Glogowska M, Kus E, Jasztal A, Wrobel T P, et al. Anti-atherosclerotic effects of pravastatin in brachiocephalic artery in comparison with en face aorta and aortic roots in ApoE/LDLR−/− mice. Pharmacol Reports 2017; 69:112-8. doi:10.1016/j.pharep.2016.09.014; Tyrankiewicz U, Skorka T, Orzylowska A, Jablonska M, Jasinski K, Jasztal A, et al. Comprehensive MRI for the detection of subtle alterations in diastolic cardiac function in apoE/LDLR−/− mice with advanced atherosclerosis. NMR Biomed 2016; 29:833-40. doi:10.1002/nbm.3524; Mateuszuk L, Jasztal A, Maslak E, Gasior-Glogowska M, Baranska M, Sitek B, et al. Antiatherosclerotic Effects of 1-Methylnicotinamide in Apolipoprotein E/Low-Density Lipoprotein Receptor-Deficient Mice: A Comparison with Nicotinic Acid. J Pharmacol Exp Ther 2016; 356:514-24. doi:10.1124/jpet.115.228643; Wrobel T P, Marzec K M, Chlopicki S, Maślak E, Jasztal A, Franczyk-Żarów M, et al., Effects of Low Carbohydrate High Protein (LCHP) diet on atherosclerotic plaque phenotype in ApoE/LDLR−/− mice: FT-IR and Raman imaging. […] End-diastolic volumes of BCA and LCA were analyzed using ImageJ software (1.46r NIH Bethesda, Md., USA) and scripts written in Matlab (MathWorks, Natick, Mass., USA) (FIG. 1A)."}, "[2]": {"assay": "Example 3 second part: lipid profile, liver enzymes and blood count", "conditions": "eight weeks"}, "[3]": {"test_system": "endothelial nitric oxide synthase (eNOS)-dependent nitric oxide (NO) production", "assay": "Example 3: endothelial NO production in ex vivo aorta by EPR", "conditions": "0.05 mg/kg b.w./day, vs untreated age-matched mice", "source_text": "For measurements of endothelial nitric oxide synthase (eNOS)-dependent nitric oxide (NO) production, EPR spin-trapping with diethyldithiocarbamic acid sodium salt (DETC) was used ex vivo, as described in Przyborowski K, Proniewski B, Czarny J, Smeda M, Sitek B, Zakrzewska A, et al. Vascular Nitric Oxide-Superoxide Balance and Thrombus Formation after Acute Exercise. Med Sci Sport Exerc 2018:1. doi:10.1249/MSS.0000000000001589, with minor modifications. Isolated aorta cleared from surrounding tissue was opened longitudinally and preincubated with 10 μM L-NIL (N6-(1-Iminoethyl)-lysine, hydrochloride) in Krebs-HEPES buffer for 30 minutes at 37° C. in a well of a 48-well plate. Next, 250 μL of Fe(DETC)2 colloid was added and aorta was stimulated with calcium ionophore A23187 (the final concentration was 1 μM) and subsequently, incubated for 90 minutes at 37° C. Finally, aorta was weighed and frozen in liquid nitrogen (suspended in fresh buffer) into the middle of a 400 μL column of Krebs-Hepes buffer and stored at −80° C. until measured. EPR spectra were obtained using an X-band EPR spectrometer (EMX Plus, Bruker, Germany), equipped with a rectangular resonator cavity H102. Signals were quantified by measuring the total amplitude of the NO—Fe(DETC)2 after correction of baseline. The quantitative results of NO production assessed by EPR were expressed in AU/mg of tissue."}}, "note": "Several values for one entry are separate records, joined by “and”; a condition that tells them apart may be missing. Equal entries are not always repeated."}
{"compound": "CC(C)=CCC/C(C)=C/CC/C(C)=C/CC/C(C)=C/CC/C(C)=C/CC/C(C)=C/CC/C(C)=C/CC1=C(C)C(=O)c2ccccc2C1=O", "note": "[MK-7, menaquinone-7]", "values": [{"measurement": "mean reduction in measured pulse-wave velocity", "setting": "[1]", "result": 30, "unit": "%"}, {"measurement": "volume change of BCA after Ach injection", "setting": "ApoE/LDLR−/− mice; high dose 10 mg/kg b.w./day", "result": 3.12, "unit": "%"}, {"measurement": "volume change of LCA after Ach injection", "setting": "ApoE/LDLR−/− mice; high dose 10 mg/kg b.w./day", "result": 4.45, "unit": "%"}, {"measurement": "volume change of LCA after Ach injection", "setting": "ApoE/LDLR−/− mice; low dose 0.03 mg/kg b.w./day, listed as vitamin MK-7, 0.03 mg/kg/day", "result": "~−3% and −3.92%"}, {"measurement": "MPV", "setting": "[2]; 0.03 mg/kg", "result": "5.20 ± 0.33"}, {"measurement": "MPV", "setting": "[2]; 10 mg/kg", "result": "4.97 ± 0.19"}, {"measurement": "nitric oxide production in ex vivo aorta by EPR", "setting": "[3]", "result": "increased"}]}
